This is an account of results in ChEMBL document CHEMBL6078721, “Structurally diverse chromane meroterpenoids from Rhododendron capitatum with multifunctional neuroprotective effects” (Eur J Med Chem, 2025).

pIC50: −log10 of the molar value. Active and inactive are the calls of the source. No cut-off for these calls is given here. Some results are limits rather than exact numbers.

The subject of assay [1] is BV-2. Briefly: Anti-inflammatory activity against mouse BV-2 cells assessed as inhibition of LPS-induced NO production pretreated for 3 hrs followed by LPS addition measured after 24 hrs by Griess reagent based assay. The format is functional, cell-based. (In general: Nitrite, measured by Griess reagent, commonly stands in for NO production.)
Assay [2] deals with PC-12. Briefly: Induction of neuronal differentiation in rat PC-12 cells assessed as increase in neurite bearing cells incubated for 48 hrs in presence of NGF by microscopic analysis. The format is functional, cell-based. As to conditions: dose 1-10 µM.
Assay [3] concerns PC-12. Briefly: Induction of neuronal differentiation in rat PC-12 cells at 10 uM incubated for 48 hrs by microscopic analysis. The format is functional, cell-based.
Assay [4] relates to PC-12. Briefly: Neuroprotective activity against H2O2-induced neurotoxicity in rat PC-12 cells at 5 to 40 uM incubated for 24 hrs by MTT assay. The format is functional, cell-based. The settings on record: dose 5-40 µM. Background: Tetrazolium dyes change colour on reduction, which living cells bring about.
For assay [5], the system named is PC-12. Briefly: Neuroprotective activity against 6-OHDA-induced neurotoxicity in rat PC-12 cells at 5 to 40 uM incubated for 24 hrs by MTT assay. The format is functional, cell-based. The settings on record: dose 5-40 µM.
For assay [6], the system named is BV-2. Description: Anti-inflammatory activity against mouse BV-2 cells assessed as reduction in LPS-induced iNOS expression pretreated for 3 hrs followed by LPS addition measured after 24 hrs by Western blot analysis. The format is functional, cell-based. As to conditions: dose 3-30 µM, time 27.0 hrs. Background: A western blot detects proteins with antibodies after separation by electrophoresis.

Assay [7] concerns BV-2. Description: Anti-inflammatory activity against mouse BV-2 cells assessed as reduction in LPS-induced COX-2 expression pretreated for 3 hrs followed by LPS addition measured after 24 hrs by Western blot analysis. The format is functional, cell-based. The settings on record: dose 3-30 µM, time 27.0 hrs.
The subject of assay [8] is BV-2. Description: Anti-inflammatory activity against mouse BV-2 cells assessed as inhibition of LPS-induced p-JNK activation at 30 uM pretreated for 3 hrs followed by LPS addition measured after 24 hrs. Format: functional, cell-based. The settings on record: time 27.0 hrs.
Assay [9] can be described thus: Induction of neuronal differentiation in rat PC-12 cells assessed as neurite growth at 10 uM incubated for 48 hrs in presence of NGF by microscopic analysis (reference value: 8.39 +/- 0.03 %). Format: functional.
The nature of assay [10]: Induction of neuronal differentiation in rat PC-12 cells assessed as neurite growth by measuring fold change at 10 uM incubated for 48 hrs in presence of NGF by microscopic analysis relative to NGF. The format is functional.
Assay [11] deals with PC-12. Briefly: Neuroprotective activity against H2O2-induced neurotoxicity in rat PC-12 cells assessed as increase in HO-1 level at 2.5 to 40 uM by Western blot analysis. Format: functional, cell-based. The settings on record: dose 2.5-40 µM.
In assay [12] the test system is Caenorhabditis elegans. Briefly: Antialzheimer activity in transgenic Caenorhabditis elegans CL4176 expressing human amyloid-beta peptide assessed as decrease in paralysis rate at 12.5 uM incubated for 14 hrs relative to control. Format: functional. Also noted: scale not given: the % may be the effect or the level left.
For assay [13], the system named is BV-2. Briefly: Anti-inflammatory activity against mouse BV-2 cells assessed as inhibition of LPS-induced NF-kappaB p65 phosphorylation pretreated for 3 hrs followed by LPS addition measured after 24 hrs by Western blot analysis. The format is functional, cell-based. The settings on record: dose 3-30 µM, time 27.0 hrs.
The subject of assay [14] is PC-12. Briefly: Neuroprotective activity against H2O2-induced neurotoxicity in rat PC-12 cells assessed as increase in catalase level at 2.5 to 40 uM by Western blot analysis. Format: functional, cell-based. The settings on record: dose 2.5-40 µM.
The subject of assay [15] is Caenorhabditis elegans. Description: Antioxidant activity in Caenorhabditis elegans CL4176 expressing human amyloid-beta peptide assessed as decrease in ROS level at 50 uM incubated for 7 days by H2DCF-DA probe based analysis relative to control. The format is functional. Also noted: scale not given: the % may be the effect or the level left. As to conditions: time 7 day.

For assay [16], the system named is BV-2. Briefly: Anti-inflammatory activity against mouse BV-2 cells assessed as inhibition of LPS-induced JNK activation at 30 uM pretreated for 3 hrs followed by LPS addition measured after 24 hrs. The settings on record: time 27.0 hrs. The format is functional, cell-based.
Assay [17] deals with Caenorhabditis elegans. Description: Antialzheimer activity in transgenic Caenorhabditis elegans CL4176 expressing human amyloid-beta peptide assessed as decrease in paralysis rate at 25 uM incubated for 14 hrs. The format is functional, organism-based.
Assay [18] concerns PC-12. Briefly: Neuroprotective activity against H2O2-induced neurotoxicity in rat PC-12 cells incubated for 24 hrs by MTT assay. Format: functional, cell-based. The settings on record: dose 5-40 µM.
For assay [19], the system named is BV-2. Description: Anti-inflammatory activity against mouse BV-2 cells assessed as inhibition of LPS-induced NF-kappaB p65 nuclear entry at 3 to 30 uM pretreated for 3 hrs followed by LPS addition measured after 24 hrs by Western blot analysis. Format: functional, cell-based. The settings on record: dose 3-30 µM, time 27.0 hrs.
Assay [20] concerns BV-2. Description: Anti-inflammatory activity against mouse BV-2 cells assessed as reduction in LPS-induced COX-2 expression pretreated for 3 hrs followed by LPS addition measured after 24 hrs by immunofluorescence based analysis. The format is functional, cell-based. As to conditions: dose 3-30 µM.

By pIC50 is commonly meant the negative decadic logarithm of the IC50, by convention in mol/L.

For the compound `C/C(=C/CC/C(C)=C/CC[C@@]1(C)C=Cc2c(O)cc(C)cc2O1)CO`, the pIC50 in the assay with BV-2 [1] is 4.95.
As to `CC(C)=CC[C@H](O)/C(C)=C/CC[C@@]1(C)C=Cc2c(O)cc(C)cc2O1`, the pIC50 with BV-2 [1] was 4.70. The Activity result in the assay with PC-12 [2] is “Dose-dependent-effect”. Further, the outcome with PC-12 [3] was Active.
Consider `C=C(C)[C@@H]1CC[C@]2(C)Oc3cc(C)cc(O)c3C[C@H]12`, for which, in the assay with BV-2 [1], the pIC50 was below 4.52. Further, the Activity result in the assay on PC-12 [4] and in the assay on PC-12 [5] was “Active; Activity Was Comparable To That Of Ngf” in each case.
As to `C/C(=C\CC/C(C)=C/CC[C@@]1(C)C=Cc2c(O)cc(C)cc2O1)CO`, the pIC50 in the assay with BV-2 [1] was 4.80. In addition, the Activity entry in the assay with BV-2 [6] and in the assay with BV-2 [7] was “Dose-dependent-effect” in each case. For the same compound, in the assay with BV-2 [8], the inhibition result was “Active; Exhibited Mild Inhibition”.
Regarding `C/C(=C\Cc1c(O)cc(C)cc1O)CC/C=C(\C)CC(=O)CC(C)C`, the pIC50 in the assay on BV-2 [1] is 4.70.
Turning to `Cc1cc(O)c2c(c1)O[C@@]1(C)CC[C@H]3O[C@@H]2[C@@H]1C3(C)C`, the pIC50 in the assay on BV-2 [1] is below 4.52. Moreover, the Activity entry with PC-12 [4] was “Active; Activity Was Comparable To That Of Ngf”; in assay [9], 21.85%; with PC-12 [5], “Active; Activity Was Comparable To That Of Ngf”; in the assay with PC-12 [2], “Dose-dependent-effect”. The result with PC-12 [3] was Active. For the same compound, in assay [10], the “fold change (FC)” value is around 3.
With `CC(C)=CC(=O)C[C@]1(C)Oc2cc(C)cc3c2[C@H]2C[C@](C)(CC[C@H]21)O3`, the pIC50 in the assay with BV-2 [1] is 4.80. The Activity result in the assay with PC-12 [4] is “Active; Activity Was Comparable To That Of Ngf”; in the assay on PC-12 [11], “Active; Exhibited More Activity Than That Of Positive Group”; with Caenorhabditis elegans [12], around 20%; in the assay on PC-12 [5], “Active; Activity Was Comparable To That Of Ngf”; in the assay on PC-12 [14], “Active; Exhibited More Activity Than That Of Positive Group”; in the assay with Caenorhabditis elegans [15] it was “>=15.2%”. Moreover, the result in the assay on BV-2 [6] and with BV-2 [7] was Active. Further, the inhibition entry with BV-2 [13] was “Dose-dependent-effect”; in the assay on BV-2 [16], “Active; Activity Was Comparable To That Of Quercetin”.
In the case of `CC(C)=CCC/C(C)=C/CC/C(C)=C/Cc1c(O)cc(C)cc1O` [GRIFOLIN], the pIC50 in the assay with BV-2 [1] is 4.72. In addition, the result in the assay on PC-12 [11] and with PC-12 [14] was Active.
As to `C=C(C)[C@H](O)CC[C@@]1(C)[C@@H]2CC[C@]3(C)Oc4cc(C)cc(O)c4[C@H]1[C@H]23`, the pIC50 in the assay on BV-2 [1] is 4.66. Besides, the Activity result with PC-12 [4] and in the assay on PC-12 [5] was “Active; Activity Was Comparable To That Of Ngf” each time.
Regarding `COC(C)(C)C/C=C/C(C)=C/CC[C@@]1(C)C=Cc2c(O)cc(C)cc2O1`, the Activity in assay [9] is 22.93%; with PC-12 [2], “Dose-dependent-effect”. Besides, the result in the assay with PC-12 [3] was Active. The “fold change (FC)” value in assay [10] was around 3.
With `O=c1c(O)c(-c2ccc(O)c(O)c2)oc2cc(O)cc(O)c12` [QUERCETIN], the pIC50 with BV-2 [1] is 4.93.
As to `C/C(=C\CC[C@@]1(C)C=Cc2c(O)cc(C)cc2O1)CC(=O)CC(C)C`, the pIC50 in the assay with BV-2 [1] was 4.67.
Consider `CC(C)=CC(=O)[C@@H]1[C@H]2c3c(O)cc(C)cc3O[C@@]3(C)CCC[C@]1(C)[C@@H]23`, for which the Activity result is reported as “Active; Activity Was Comparable With Quercetin At 50 Um” in the assay on Caenorhabditis elegans [17]; “Dose-dependent-effect; Activity Was Comparable To That Of Ngf” with PC-12 [18]; “Dose-dependent-effect; Exhibited More Potency Than Quercetin” with BV-2 [6]; “Active; Activity Was Comparable To That Of Ngf” with PC-12 [5]; “Dose-dependent-effect; Exhibited More Potency Than Quercetin” with BV-2 [7]; “>=18.7%” in the assay with Caenorhabditis elegans [15]. The Activity result in the assay on BV-2 [20] is “Dose-dependent-effect”. In the assay on BV-2 [1], the pIC50 is 4.76. Besides, the inhibition entry in the assay on BV-2 [19] was “Active; Exhibited Mild Inhibition”; in the assay on BV-2 [16], “Active; Activity Was Comparable To That Of Quercetin”.
On to `Cc1cc(O)c2c(c1)O[C@@]1(C)CCC[C@@]3(C)[C@H](C(=O)CC(C)C)[C@@H]2[C@H]31`, for which the pIC50 in the assay with BV-2 [1] was 4.55. Further, the outcome in the assay on PC-12 [4] and in the assay with PC-12 [3] was Active. Besides, the Activity result in the assay with PC-12 [5] was “Active; Capable Of Rescuing Cell Injury To Greater Extent”; in the assay on PC-12 [2], “Dose-dependent-effect”.
`C=C(C)[C@@H](O)CC/C(C)=C/CC[C@@]1(C)C=Cc2c(O)cc(C)cc2O1`: the pIC50 in the assay with BV-2 [1] is 4.60.
As to `COC(C)(C)CC(=O)[C@@H]1[C@H]2c3c(O)cc(C)cc3O[C@@]3(C)CCC[C@]1(C)[C@@H]23`, the Activity entry with PC-12 [4] was “Active; Activity Was Comparable To That Of Ngf”; in the assay with PC-12 [5], “Active; Activity Was Comparable To That Of Ngf”; in the assay with PC-12 [2], “Dose-dependent-effect”. Also, the outcome with PC-12 [3] was Active.
On to `C=C(C)[C@@H](O)CC[C@@]1(C)[C@@H]2CC[C@]3(C)Oc4cc(C)cc(O)c4[C@H]1[C@H]23`, for which the Activity entry in the assay on PC-12 [5] was “Active; Capable Of Rescuing Cell Injury To Greater Extent”.
Same read-out and setting: under `Cc1cc(O)c2c(c1)O[C@@]1(C)CC[C@@H](C(C)(C)O)[C@@H]2C1` stands “Active; Capable Of Rescuing Cell Injury To Greater Extent”.
